The text below walks through data of patent publication US8173631B2, “Cyclic amine compounds” (Daiichi Sankyo Company, Limited, priority 2008, dated 2012).

This assay addresses T1, human calcium-sensing receptor (CaSR) (Homo sapiens, UniProt P41180).
T1 construct: expressed in transfected cells
T1 sequence (P41180 20-1078): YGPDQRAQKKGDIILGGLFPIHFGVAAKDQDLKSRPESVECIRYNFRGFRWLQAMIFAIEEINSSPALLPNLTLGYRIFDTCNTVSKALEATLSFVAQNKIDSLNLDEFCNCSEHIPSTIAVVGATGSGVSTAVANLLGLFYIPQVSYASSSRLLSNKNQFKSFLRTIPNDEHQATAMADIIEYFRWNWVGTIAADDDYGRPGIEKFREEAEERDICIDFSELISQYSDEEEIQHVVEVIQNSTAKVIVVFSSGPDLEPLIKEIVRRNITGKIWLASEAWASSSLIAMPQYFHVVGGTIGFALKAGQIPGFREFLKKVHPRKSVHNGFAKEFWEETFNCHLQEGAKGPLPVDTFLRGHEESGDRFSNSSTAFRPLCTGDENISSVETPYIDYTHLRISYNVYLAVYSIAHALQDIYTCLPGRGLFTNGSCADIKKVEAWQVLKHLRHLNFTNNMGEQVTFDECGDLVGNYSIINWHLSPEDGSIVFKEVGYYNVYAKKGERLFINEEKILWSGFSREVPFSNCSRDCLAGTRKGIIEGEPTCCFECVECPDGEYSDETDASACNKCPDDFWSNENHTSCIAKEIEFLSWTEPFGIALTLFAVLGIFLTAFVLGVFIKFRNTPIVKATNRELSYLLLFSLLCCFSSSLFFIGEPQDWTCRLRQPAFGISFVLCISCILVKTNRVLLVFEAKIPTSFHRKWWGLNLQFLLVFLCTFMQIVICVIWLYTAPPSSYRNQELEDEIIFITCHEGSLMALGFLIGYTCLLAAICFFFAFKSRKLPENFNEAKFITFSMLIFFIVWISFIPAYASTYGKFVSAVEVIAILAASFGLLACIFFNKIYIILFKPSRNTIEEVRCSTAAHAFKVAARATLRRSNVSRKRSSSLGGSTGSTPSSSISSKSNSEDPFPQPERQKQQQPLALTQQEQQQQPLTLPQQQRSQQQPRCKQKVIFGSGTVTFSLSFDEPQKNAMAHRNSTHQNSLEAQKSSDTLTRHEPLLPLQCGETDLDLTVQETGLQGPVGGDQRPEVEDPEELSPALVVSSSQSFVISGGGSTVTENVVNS
Nature of the assay: Inhibitory activity on calcium-sensing receptor (CaSR), intracellular calcium increase as indicator (FLIPR, CHO/hCaSR). The assay is classed as cell-based. The conditions noted are these: CHO cells stably expressing human CaSR; inhibition of intracellular Ca increase induced by extracellular CaCl2. The method, then:
Evaluation of inhibitory activity on calcium-sensing receptor (CaSR) using intracellular calcium increase as an indicator
The preparation which is prepared by adding CHO/hCaSR to F12 medium (manufactured by Invitrogen) containing 10% fetal bovine serum to have 2×10^5 cells/mL was applied to a 384-well in an amount of 50 μL/well, and then incubated overnight in a CO2 incubator. The culture supernatant was completely removed, the assay buffer (20 mM HEPES, HBSS (Ca and Mg free) containing 2.5 mM probenecid, pH 7.4) containing Calcium 3 (manufactured by Molecular Devices), i.e., a fluorescent intracellular calcium indicator, was added thereto in an amount of 25 μL/well, and the mixture was maintained for 1 hour in a CO2 incubator. Meanwhile, Calcium 3 was prepared according to the protocol enclosed in FLIPR Calcium 3 Assay Kit (manufactured by Molecular Devices). After maintaining it for 1 hour, a solution in which the test compound is prepared to have 2.1 to 20,000 nM (final concentration of 1.05 to 10,000 nM) by an assay buffer was added thereto in an amount of 25 μL/well, and maintained for 15 minutes in a CO2 incubator. Then, the CaCl2 solution prepared to have […] by using the assay buffer was added in an amount of 25 μL/well, and the resulting intracellular Ca increase (i.e., fluorescence intensity) was measured over time using a fluorescence imaging plate reader (FLIPR, manufactured by Molecular Devices). From the data obtained, the difference between the fluorescence intensity before the addition of CaCl2 solution and the maximum fluorescence intensity after the addition of CaCl2 solution was calculated, and the 50% inhibition concentration (IC50) of the test compound was obtained.
As for `CCC[C@@H](OC[C@H](O)CN1CCC[C@H]1Cc1ccc(C)c(F)c1)c1cc(F)ccc1CCC(=O)O` [Example 61], the IC50 is ≤ 3.27 µM. As for `CCC[C@@H](OC[C@H](O)CN1CCC[C@H]1Cc1ccc(C)c(F)c1)c1cccc(C)c1CCC(=O)O` [Example 62], the figure is ≤ 3.29 µM; as for `CCC[C@@H](OC[C@H](O)CN1CCC[C@H]1Cc1ccc(C)c(F)c1)c1cccc(F)c1CCC(=O)O` [Example 63], ≤ 3.27 µM. On to `CCC[C@@H](OC[C@H](O)CN1CCC[C@H]1Cc1ccc(C)c(F)c1)c1ccc(C)cc1CCC(=O)O` [Example 64], for which the IC50 was ≤ 3.29 µM. For the molecule `CCC[C@@H](OC[C@H](O)CN1CCC[C@H]1Cc1ccc(C)c(F)c1)c1cccc(OC)c1CCC(=O)O` [Example 65], the IC50 was ≤ 3.19 µM.

Take `CC[C@@H](OC[C@H](O)CN1CCC[C@H]1Cc1ccc(C)c(F)c1)c1cc(F)c(C)cc1CCC(=O)O` [Example 69]: the IC50 is ≤ 3.27 µM. As for `CC[C@@H](OC[C@H](O)CN1CCC[C@H]1Cc1ccc(C)c(F)c1)c1cc(F)c(C)cc1CCCCC(=O)O` [Example 70], the figure is ≤ 3.09 µM; as for `CCOc1cccc([C@@H](C)OC[C@H](O)CN2CCC[C@H]2Cc2ccc(C)c(F)c2)c1CCC(=O)O` [Example 71], ≤ 3.28 µM. Regarding `CCOc1cccc([C@@H](C)OC[C@H](O)CN2CCC[C@H]2Cc2ccc(C)c(F)c2)c1CCCCC(=O)O` [Example 72], the IC50 was ≤ 3.1 µM. As for `Cc1ccc(C[C@@H]2CCCN2C[C@@H](O)CO[C@H](C)c2cccc(OC(C)C)c2CCC(=O)O)cc1F` [Example 73], the figure is ≤ 3.19 µM. For `Cc1ccc(C[C@@H]2CCCN2C[C@@H](O)CO[C@H](C)c2cccc(OC(C)C)c2CCCCC(=O)O)cc1F` [Example 74], the IC50 was ≤ 3.02 µM.

In the case of `Cc1ccc(C[C@@H]2CCCN2C[C@@H](O)CO[C@H](C)c2cccc(OC(F)F)c2CCC(=O)O)cc1F` [Example 75], the IC50 was ≤ 3.14 µM. To `Cc1ccc(C[C@@H]2CCCN2C[C@@H](O)CO[C@H](C)c2ccccc2CCCCCC(=O)O)cc1F` [Example 76] belongs ≤ 3.29 µM; to `Cc1ccc(C[C@@H]2CCCN2C[C@@H](O)CO[C@H](C)c2ccccc2CCCCCCC(=O)O)cc1F` [Example 77], ≤ 3.2 µM; to `Cc1ccc(C[C@@H]2CCCN2C[C@@H](O)CO[C@H](C)c2ccc(Cl)cc2CCC(=O)O)cc1F` [Example 78], ≤ 3.35 µM. For the molecule `Cc1ccc(C[C@@H]2CCCN2C[C@@H](O)CO[C@H](C)c2cc(Cl)ccc2CCC(=O)O)cc1F` [Example 79], the IC50 is ≤ 3.35 µM. Regarding `Cc1ccc(C[C@@H]2CCCN2C[C@@H](O)CO[C@H](C)c2cccc(Cl)c2CCC(=O)O)cc1F` [Example 80], the IC50 is ≤ 3.35 µM.

As to `Cc1ccc(C[C@@H]2CCCN2C[C@@H](O)CO[C@H](C)c2ccc(Cl)cc2CCCCC(=O)O)cc1F` [Example 81], the IC50 was ≤ 3.16 µM. In the case of `C[C@@H](OC[C@H](O)CN1CCC[C@H]1Cc1ccc(F)c(Cl)c1)c1ccccc1CCC(=O)O` [Example 83], the IC50 is ≤ 3.45 µM. Consider `Cc1ccc(C[C@@H]2CCCN2C[C@@H](O)CO[C@H](C)c2ccccc2CCC(=O)O)cc1Cl` [Example 84], for which the IC50 was ≤ 3.48 µM. As for `C[C@@H](OC[C@H](O)CN1CCC[C@H]1Cc1ccc(Cl)c(Cl)c1)c1ccccc1CCC(=O)O` [Example 88], the figure is ≤ 3.33 µM. As for `CCc1cc(C[C@@H]2CCCN2C[C@@H](O)CO[C@H](C)c2ccccc2CCC(=O)O)ccc1Cl` [Example 89], the IC50 is ≤ 3.38 µM. With `Cc1ccc(C[C@@H]2CCCN2C[C@@H](O)CO[C@H](C)c2cccc(F)c2CCC(=O)O)cc1Cl` [Example 90], the IC50 is ≤ 3.35 µM. For the molecule `C[C@@H](OC[C@H](O)CN1CCC[C@H]1Cc1ccc(Cl)c(F)c1)c1cccc(F)c1CCC(=O)O` [Example 91], the IC50 was ≤ 3.32 µM. Consider `C[C@@H](OC[C@H](O)CN1CCC[C@H]1Cc1ccc(Cl)c(Cl)c1)c1cccc(F)c1CCC(=O)O` [Example 92], for which the IC50 is ≤ 3.21 µM. To `CCc1cc(C[C@@H]2CCCN2C[C@@H](O)CO[C@H](C)c2cccc(F)c2CCC(=O)O)ccc1Cl` [Example 93] belongs ≤ 3.25 µM; to `CC[C@@H](OC[C@H](O)CN1CCC[C@H]1Cc1ccc(C)c(F)c1)c1cc(Cl)ccc1CCC(=O)O` [Example 94], ≤ 3.25 µM; to `CC[C@@H](OC[C@H](O)CN1CCC[C@H]1Cc1ccc(C)c(F)c1)c1ccc(Cl)cc1CCC(=O)O` [Example 95], ≤ 3.25 µM. For the molecule `C[C@@H](OC[C@H](O)CN1CCC[C@H]1Cc1ccc(Cl)c(Cl)c1)c1cc(F)ccc1CCC(=O)O` [Example 96], the IC50 is ≤ 3.21 µM. Take `Cc1ccc([C@@H](C)OC[C@H](O)CN2CCC[C@H]2Cc2ccc(Cl)c(Cl)c2)c(CCC(=O)O)c1` [Example 97]: the IC50 is ≤ 3.24 µM. As for `CCc1cc(C[C@@H]2CCCN2C[C@@H](O)CO[C@H](C)c2ccc(C)cc2CCC(=O)O)ccc1Cl` [Example 98], the figure is ≤ 3.28 µM; as for `CCc1cc(C[C@@H]2CCCN2C[C@@H](O)CO[C@H](C)c2cc(F)ccc2CCC(=O)O)ccc1Cl` [Example 99], ≤ 3.25 µM.

Take `CC[C@@H](OC[C@H](O)CN1CCC[C@H]1Cc1ccc(Cl)c(Cl)c1)c1ccc(Cl)cc1CCC(=O)O` [Example 100]: the IC50 is ≤ 3.03 µM. To `CCc1cc(C[C@@H]2CCCN2C[C@@H](O)CO[C@H](CC)c2ccc(Cl)cc2CCC(=O)O)ccc1Cl` [Example 101] belongs ≤ 3.06 µM; to `CC[C@@H](OC[C@H](O)CN1CCC[C@H]1Cc1ccc(Cl)c(Cl)c1)c1ccc(C)cc1CCC(=O)O` [Example 102], ≤ 3.15 µM. As to `CCc1cc(C[C@@H]2CCCN2C[C@@H](O)CO[C@H](CC)c2ccc(C)cc2CCC(=O)O)ccc1Cl` [Example 103], the IC50 was ≤ 3.19 µM. As for `CC[C@@H](OC[C@H](O)CN1CCC[C@H]1Cc1ccc(Cl)c(Cl)c1)c1cc(F)ccc1CCC(=O)O` [Example 104], the figure is ≤ 3.12 µM.

In the case of `CCc1cc(C[C@@H]2CCCN2C[C@@H](O)CO[C@H](CC)c2cc(F)ccc2CCC(=O)O)ccc1Cl` [Example 105], the IC50 is ≤ 3.16 µM.

Take `C[C@@H](OC[C@H](O)CN1CCC[C@H]1Cc1ccc(Cl)c(Cl)c1)c1cc(F)cc(F)c1CCC(=O)O` [Example 106]: the IC50 is ≤ 3.1 µM. To `CCc1cc(C[C@@H]2CCCN2C[C@@H](O)CO[C@H](C)c2cc(F)cc(F)c2CCC(=O)O)ccc1Cl` [Example 107] belongs ≤ 3.14 µM. To `CC[C@@H](OC[C@H](O)CN1CCC[C@H]1Cc1ccc(Cl)c(Cl)c1)c1cccc(F)c1CCC(=O)O` [Example 108] belongs ≤ 3.12 µM; to `CCc1cc(C[C@@H]2CCCN2C[C@@H](O)CO[C@H](CC)c2cccc(F)c2CCC(=O)O)ccc1Cl` [Example 109], ≤ 3.16 µM. As for `CC[C@@H](OC[C@H](O)CN1CCC[C@H]1Cc1ccc(Cl)c(Cl)c1)c1cc(F)cc(F)c1CCC(=O)O` [Example 110], the figure is ≤ 3.02 µM; as for `CCc1cc(C[C@@H]2CCCN2C[C@@H](O)CO[C@H](CC)c2cc(F)cc(F)c2CCC(=O)O)ccc1Cl` [Example 111], ≤ 3.05 µM. As to `CC[C@@H](OC[C@H](O)CN1CCC[C@H]1Cc1ccc(C)c(F)c1)c1cccc(Cl)c1CCC(=O)O` [Example 112], the IC50 is ≤ 3.25 µM. To `CC[C@@H](OC[C@H](O)CN1CCC[C@H]1Cc1ccc(Cl)c(Cl)c1)c1cccc(Cl)c1CCC(=O)O` [Example 113] belongs ≤ 3.03 µM; to `CCc1cc(C[C@@H]2CCCN2C[C@@H](O)CO[C@H](CC)c2cccc(Cl)c2CCC(=O)O)ccc1Cl` [Example 114], ≤ 3.06 µM.
